Source: patent publication US9149038B2, “4-amino-6-(heterocyclic)picolinates and 6-amino-2-(heterocyclic)pyrimidine-4-carboxylates and their use as herbicides” (Dow AgroSciences LLC, priority 2013, dated 2015)
Like-named read-outs stand apart in the source and are kept apart here.

Experiments:
[1] = test system: Key Broadleaf Weed and Crop Species; experiment: Post-Emergent Test II: postemergent herbicidal activity, visual rating after 14 d (Table 7); format: in vivo; conditions: post-emergence, 336 h; for pest or weed control at 35 g/ha: 35 g ai/ha; for pest or weed control at 70 g/ha: 70 g ai/ha; for pest or weed control at 140 g/ha: 140 g ai/ha
Outline: (§1)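 Scoring is visual, 0-100, at 14 d after application, comparing treated with untreated plants. Application: overhead track spray at 187 L/ha onto seedlings at 1-2 true leaves, in surfactant/crop-oil carrier.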

[2] = test system: Key Grass and Sedge Weeds as well as Grass Crops; experiment: Post-Emergent Test II: postemergent herbicidal activity, visual rating after 14 d (Table 8); format: in vivo; conditions: post-emergence, 336 h; for pest or weed control at 35 g/ha: 35 g ai/ha; for pest or weed control at 70 g/ha: 70 g ai/ha; for pest or weed control at 140 g/ha: 140 g ai/ha
Outline: as §1

[3] = lambsquarters (Chenopodium album), read-out: Visual Growth Reduction (%) 14 Days After Application CHEAL
[4] = oilseed rape, canola (Brassica napus), read-out: Visual Growth Reduction (%) 14 Days After Application BRSNN
[5] = redroot pigweed (Amaranthus retroflexus), read-out: Visual Growth Reduction (%) 14 Days After Application AMARE
[6] = sunflower (Helianthus annuus), read-out: Visual Growth Reduction (%) 14 Days After Application HELAN
[7] = velvetleaf (Abutilon theophrasti), read-out: Visual Growth Reduction (%) 14 Days After Application ABUTH
[8] = wild poinsettia (Euphorbia heterophylla), read-out: Visual Growth Reduction (%) 14 Days After Application EPHHL
[9] = barnyardgrass (Echinochloa crus-galli), read-out: Visual Growth Reduction (%) 14 Days After Application ECHCG
[10] = giant foxtail (Setaria faberi), read-out: Visual Growth Reduction (%) 14 Days After Application SETFA
[11] = maize, corn (Zea mays), read-out: Visual Growth Reduction (%) 14 Days After Application ZEAMX
[12] = rice (Oryza sativa), read-out: Visual Growth Reduction (%) 14 Days After Application ORYSA
[13] = wheat, spring (Triticum aestivum), read-out: Visual Growth Reduction (%) 14 Days After Application TRZAS
[14] = yellow nutsedge (Cyperus esculentus), read-out: Visual Growth Reduction (%) 14 Days After Application CYPES

Row | SMILES | pest or weed control at 35 g/ha [1, 3] [%] | pest or weed control at 70 g/ha [1, 3] [%] | pest or weed control at 140 g/ha [1, 3] [%] | pest or weed control at 35 g/ha [1, 4] [%] | pest or weed control at 70 g/ha [1, 4] [%] | pest or weed control at 140 g/ha [1, 4] [%] | pest or weed control at 35 g/ha [1, 5] [%] | pest or weed control at 70 g/ha [1, 5] [%] | pest or weed control at 140 g/ha [1, 5] [%] | pest or weed control at 35 g/ha [1, 6] [%] | pest or weed control at 70 g/ha [1, 6] [%] | pest or weed control at 140 g/ha [1, 6] [%] | pest or weed control at 35 g/ha [1, 7] [%] | pest or weed control at 70 g/ha [1, 7] [%] | pest or weed control at 140 g/ha [1, 7] [%] | pest or weed control at 35 g/ha [1, 8] [%] | pest or weed control at 70 g/ha [1, 8] [%] | pest or weed control at 140 g/ha [1, 8] [%] | pest or weed control at 35 g/ha [2, 9] [%] | pest or weed control at 70 g/ha [2, 9] [%] | other results
1 | COC(=O)c1nc(-c2ccc3c(c2)OC(F)(F)O3)c(F)c(N)c1Cl [Compound 6] | 95 to 100 | 95 to 100 | 95 to 100 | 75 to 84 | 85 to 94 | 85 to 94 | 75 to 84 | 75 to 84 | 95 to 100 | 85 to 94 | 85 to 94 | 95 to 100 | 95 to 100 | 95 to 100 | 95 to 100 | 85 to 94 | 85 to 94 | 95 to 100 | 95 to 100 | 95 to 100 | pest or weed control at 140 g/ha [2, 9]: 95 to 100%; pest or weed control at 35 g/ha [2, 10]: 60 to 74%; pest or weed control at 70 g/ha [2, 10]: 75 to 84%; pest or weed control at 140 g/ha [2, 10]: 85 to 94%; pest or weed control at 35 g/ha [2, 11]: 85 to 94%; pest or weed control at 70 g/ha [2, 11]: 85 to 94%; pest or weed control at 140 g/ha [2, 11]: 85 to 94%; pest or weed control at 35 g/ha [2, 12]: 30 to 44%; pest or weed control at 70 g/ha [2, 12]: 45 to 59%; pest or weed control at 140 g/ha [2, 12]: 45 to 59%; pest or weed control at 35 g/ha [2, 13]: 45 to 59%; pest or weed control at 70 g/ha [2, 13]: 60 to 74%; pest or weed control at 140 g/ha [2, 13]: 60 to 74%; pest or weed control at 35 g/ha [2, 14]: 95 to 100%; pest or weed control at 70 g/ha [2, 14]: 95 to 100%; pest or weed control at 140 g/ha [2, 14]: 95 to 100%
2 | COC(=O)c1nc(-c2ccc(Br)c3c2OC(F)(F)O3)c(F)c(N)c1Cl [Compound 78, Methyl 4-amino-6-(7-bromo-2,2-difluorobenzo[d][1,3]dioxol-4-yl)-3-chloro-5-fluoropicolinate] | 95 to 100 | 95 to 100 | 95 to 100 | 60 to 74 | 75 to 84 | 75 to 84 | 95 to 100 | 95 to 100 | 95 to 100 | 95 to 100 | 95 to 100 | 95 to 100 | 85 to 94 | 85 to 94 | 85 to 94 | 0 to 29 | 0 to 29 | 0 to 29 | 0 to 29 | 0 to 29 | pest or weed control at 140 g/ha [2, 9]: 0 to 29%; pest or weed control at 35 g/ha [2, 10]: 0 to 29%; pest or weed control at 70 g/ha [2, 10]: 0 to 29%; pest or weed control at 140 g/ha [2, 10]: 0 to 29%; pest or weed control at 35 g/ha [2, 11]: 60 to 74%; pest or weed control at 70 g/ha [2, 11]: 60 to 74%; pest or weed control at 140 g/ha [2, 11]: 60 to 74%; pest or weed control at 35 g/ha [2, 12]: 0 to 29%; pest or weed control at 70 g/ha [2, 12]: 0 to 29%; pest or weed control at 140 g/ha [2, 12]: 0 to 29%; pest or weed control at 35 g/ha [2, 13]: 0 to 29%; pest or weed control at 70 g/ha [2, 13]: 0 to 29%; pest or weed control at 140 g/ha [2, 13]: 0 to 29%; pest or weed control at 35 g/ha [2, 14]: 0 to 29%; pest or weed control at 70 g/ha [2, 14]: 0 to 29%; pest or weed control at 140 g/ha [2, 14]: 0 to 29%
3 | COC(=O)c1nc(-c2ccc3c(c2)OC(C)(C)O3)c(F)c(N)c1Cl [Compound 8] | 45 to 59 | 75 to 84 | 85 to 94 | 60 to 74 | 60 to 74 | 75 to 84 | 0 to 29 | 45 to 59 | 60 to 74 | 0 to 29 | 45 to 59 | 85 to 94 | 95 to 100 | 95 to 100 | 95 to 100 | 95 to 100 | 95 to 100 | 95 to 100 | 95 to 100 | 95 to 100 | pest or weed control at 140 g/ha [2, 9]: 95 to 100%; pest or weed control at 35 g/ha [2, 10]: 85 to 94%; pest or weed control at 70 g/ha [2, 10]: 95 to 100%; pest or weed control at 140 g/ha [2, 10]: 95 to 100%; pest or weed control at 35 g/ha [2, 11]: 95 to 100%; pest or weed control at 70 g/ha [2, 11]: 95 to 100%; pest or weed control at 140 g/ha [2, 11]: 95 to 100%; pest or weed control at 35 g/ha [2, 12]: 0 to 29%; pest or weed control at 70 g/ha [2, 12]: 0 to 29%; pest or weed control at 140 g/ha [2, 12]: 30 to 44%; pest or weed control at 35 g/ha [2, 13]: 0 to 29%; pest or weed control at 70 g/ha [2, 13]: 30 to 44%; pest or weed control at 140 g/ha [2, 13]: 30 to 44%; pest or weed control at 35 g/ha [2, 14]: 95 to 100%; pest or weed control at 70 g/ha [2, 14]: 95 to 100%; pest or weed control at 140 g/ha [2, 14]: 95 to 100%
